Where two headings read alike, the source gives them in different places. Non-standard residues stand in square brackets, D forms with d. Residues, ends and D or L forms follow the SMILES beside them. αMeP = C[C@@]1(C(=O)O)CCCN1
Columns and labels:
[1] = Pharmacokinetics after intravenous bolus injection; type: in vivo, rat
Protocol: Adult male Wistar rats weighing between 180 and 240 g were used to determine the pharmacokinetics of GPE and […]. To facilitate intravenous bolus injections and blood sampling, all rats were surgically implanted with an indwelling jugular venous cannula under halothane anesthesia three days before the experiment. Groups of six rats were given a single intravenous bolus injection of either 30 mg/kg GPE or 10 mg/kg […] dissolved in 0.1M succinate buffer (pH 6.5). […] The samples were centrifuged at 3000 g for 15 min at 4° C. and the plasma removed and stored at -80° C. until extraction and assay by either radioimmunoassay (“RIA”) or reverse phase HPLC. The RIA and HPLC methods used were conventional. […] The k and half-life (t1/2) were calculated from the slope of the linear regression line in the elimination phase of the semi-logarithmic plot of plasma concentration versus time as: Log. C=-kt/2.3+log C0. Results were expressed as mean±standard error.

[2] = test system: adult MeCP2+/- female mice; assay: Optical imaging of intrinsic signals, ocular dominance plasticity; type: in vivo, mouse; settings: monocularly deprived for 4 days, treated concurrently; aged P60 or more
Protocol: For the survival measurements, the nocturnal activity analysis and the immunoblot analysis, G-2-MePE (synthesised Albany Molecular Research Inc. (Albany, N.Y.) and supplied by Neuren Pharmaceuticals Limited) is administered daily via intra-peritoneal injections (20 mg/kg, vehicle=saline, 0.01% BSA). The treatment starts at PI 5 and is maintained throughout the course of the experiments. For intracellular physiology experiments, the mice are injected daily with G-2-MePE (20 mg/kg body weight, vehicle=saline, 0.01% BSA) for 2 weeks, from P15 to P28-P32 when they are used for acute slice preparation. For optical imaging experiments, mice are injected with G-2-MePE (20 mg/kg body weight, vehicle=saline, 0.01% BSA) daily from the day of the lid suture to the day of imaging.
Adult (>P60) wild type (SVEV or BL6) and MeCP2 (+/−) mutant females (BL6) are used for this experiment. The wild type control group is composed of both wild type littermates of MeCP2+/− females or wild type age matched SVEV females. For monocular deprivation, animals are anesthetized with Avertin (0.016 ml/g) and the eyelids of one eye is sutured for 4 days. […] During the imaging session, the animal is constantly oxygenated, its temperature maintained with a heating blanket and the eyes periodically treated with silicone oil; physiological conditions are constantly monitored. […]

[3] = test system: hemizygous MeCP2(1lox) male mice; type: in vivo; settings: for time to 50 percent death: 20 mg/kg/day i.p.
Description: To determine whether G-2-MePE treatment can impact the development and progression of Rett Syndrome in a murine model of the disorder, we used hemizygous MeCP2(1lox) male mice. The MeCP2 knock-out (MeCP2-KO) mouse system is widely accepted in the art as closely mimicking the range and the severity of physiological and neurological abnormalities characteristic of the human disorder, Rett Syndrome.

## C[C@@]1(C(=O)N[C@@H](CCC(=O)O)C(=O)O)CCCN1C(=O)CN [Example G-2-MePE, Glycyl-L-2-methylprolyl-L-glutamic acid] (H-Gly-[αMeP]-Glu-OH)
[1]; 10 mg/kg single i.v. bolus, rat
  first order rate constant: 0.033 ± 0.001 min⁻¹
[1]; G-2-MePE 10 mg/kg vs GPE 30 mg/kg i.v.
  maximal plasma concentration relative to GPE: about 4.8 times
[1]; i.v., rat
  t1/2 relative to GPE: over 4 times
[2]
  OD plasticity: reduces
[3]; data initially presented
  time to 50 percent death: 16 weeks
[3]; re-examination with control group re-run
  time to 50 percent death: 16 weeks
[3]; mouse, in vivo
  safety in mecp2 mice: No safety concerns
